Source: patent publication US20250188492A1, “Enhanced Transfer of Genetic Instructions to Effector Immune Cells” (Janssen Biotech, Inc., priority 2022, published 2025)

Key:
Assay type in all cases: cell-based
LDLR = LDLR expression of primary γδ T cells pre-treated with statin; details: different concentrations, compared to lentiviral vector only-transduced cells, FIGS. 10A-10B
Procedure: (§1) Next, the effect of pre-treatment with statin in lentiviral transduction of primary γδ T cells on LDLR expression was evaluated. Three primary γδ T cells samples from healthy donors were expanded with Zol for five days, pre-treated in the presence or absence of Rosuvastatin and Atorvastatin at different concentrations, as described above, and evaluated for LDLR expression.

primary γδ T cells = test: Frequency of Vγ9Vδ2 subset of primary γδ T cells pre-treated with statin (flow cytometry); details: different concentrations, compared to lentiviral vector only at 0 statin concentration, FIGS. 11A-11B
Procedure: as §1, with “on the frequency of Vγ9Vδ2 T cell subset within the γδ T cells” for “on LDLR expression”, “Rosuvastatin or” for “Rosuvastatin and”, “for Vγ9Vδ2 expression, using flow cytometry.” for “for LDLR expression.”

primary NK cells [1] = test: Surface CAR expression of primary NK cells transduced with Antigen-1 CAR lentivirus with or without PDK1 inhibitor (flow cytometry); details: BX795 0.5 to 7.5 μM, compared to cells transduced without BX795, n=2, FIGS. 2B-2C
Procedure: NK cells were first activated in preparation of the transduction. One day 0, 0.5-1×10^6 NK cells per well were distributed in a 24-well plate.
Loaded Anti-Biotin MACSiBead particles (Miltenyi Biotech, Cat #130-094-483) for NK cell activation were resuspended thoroughly and were transferred to a suitable tube at the amount of 5 μL (5×10^5 loaded Anti-Biotin MACSiBead particles) per 1×10^6 NK cells. 100 μL culture medium was added to the loaded Anti-Biotin MACSiBead particles. The mixture was centrifuged at 300×g for 5 minutes so that the beads were washed prior to being added to the plated NK cells. […]
Lentiviral transduction was performed on day 5 or 6. […] The amount of virus needed for transducing cells was determined based on desired multiplicity of infection (MOI). […]
Cells were monitored as early as day 3-4 post transduction for surface CAR expression. The cell number of NK cells was determined. […] The CAR expression on NK cells was then measured using flow cytometry analysis.
To test whether PDK1 inhibitors can improve CAR transduction efficiency or surface CAR stability, primary NK cells were activated and transduced with a Antigen-1 CAR in the presence or absence of an PDK1 inhibitor, BX795 (InvivoGen, cat #tlrl-bx7), at concentrations varying from 0.5 to 7.5 μM. […] Surface CAR expression was monitored at regular intervals using an anti-myc tag AF647 antibody (Cell Signaling, Cat #2233, 1:200).

[2] = tested on: low-density lipoprotein receptor (LDLR); test: LDLR expression on primary NK cells after statin pre-treatment during activation; details: 5 μM during activation, DMSO negative control, n=3, FIG. 3A
Procedure: To test whether statins can improve CAR transduction efficiency or surface CAR stability, cells were pre-treated with 5 μM Rosuvastatin (Cayman Chemical, cat #12029) during the activation prior to the transduction. Then, activated primary NK cells were transduced with a Antigen-2 CAR at MOI of 5. Cells pre-treated with DMSO were included as a negative control.

primary NK cells [3] = test: Antigen-2 CAR expression of primary NK cells transduced after statin pre-treatment; details: primary NK cells pre-treated with 5 μM, MOI of 5, FIG. 3B
Procedure: Lentiviral transduction was performed on day 5 or 6. NK cells were resuspended to determine if cell number had changed from day 0. Lentiviral particles were thawed on ice. Once thawed, lentiviral particles were taken out from ice and equilibrated to room temperature before being added to the activated NK cells. The amount of virus needed for transducing cells was determined based on desired multiplicity of infection (MOI). Once the NK cells were transduced with lentiviral particles, they were returned to the incubator at 37° C. and 5% CO2.
Cells were monitored as early as day 3-4 post transduction for surface CAR expression. The cell number of NK cells was determined. 1×10^5 NK cells were collected from each sample and transferred into wells of a microtiter plate. The cells in each well of the microtiter plate were washed twice with 200 μL FACS Buffer each time. The wells were stained with 100 μL staining buffer containing appropriate CAR detection antibodies. The plate was incubated for at least 30 minutes at 4° C. without light. The cells were then washed twice with 150 μL FACS Buffer each time and were centrifuged at 400×g for 4 minutes at room temperature. The CAR expression on NK cells was then measured using flow cytometry analysis. […]

SMILES | LDLR expression (LDLR) | frequency of Vγ9Vδ2 cells (primary γδ T cells) | surface CAR stability (primary NK cells [1]) | LDLR expression on the cells [2] | Antigen-2 CAR expression (primary NK cells [3])
CC(C)c1c(C(=O)Nc2ccccc2)c(-c2ccccc2)c(-c2ccc(F)cc2)n1CC[C@@H](O)C[C@@H](O)CC(=O)O [Atorvastatin] | increased the LDLR expression | did not change the frequency of Vγ9Vδ2 cells |  |  | 
O=C(NCCCNc1nc(Nc2cccc(NC(=O)N3CCCC3)c2)ncc1I)c1cccs1 [BX795] |  |  | improved surface CAR stability in a dose dependent manner |  | 
CC(C)c1nc(N(C)S(C)(=O)=O)nc(-c2ccc(F)cc2)c1/C=C/[C@@H](O)C[C@@H](O)CC(=O)O [Rosuvastatin] | increased the LDLR expression | did not change the frequency of Vγ9Vδ2 cells |  | increased levels of LDLR expression | increased Antigen-2 CAR expression
